Test results reported in PMC12005787, “Synthetic Lethality of SHP2 and XIAP Suppresses Proliferation and Metastasis in KRAS‐mutant Nonsmall Cell Lung Cancer” (Advanced Science, 2025).
Read-outs that look alike come from different tables or passages of the source.

Tests used:
[1] = molecular target: T1, His‐ΔSHP2 (Homo sapiens, UniProt Q06124); test: Reversibility of embelin-SHP2 binding (dialysis); format: biochemical
T1 construct: His‐ΔSHP2, encompassing the peptide from amino acids 205–593 retaining PTP activity; His; made in house; host or cells: E. coli
T1 sequence (Q06124 205-593): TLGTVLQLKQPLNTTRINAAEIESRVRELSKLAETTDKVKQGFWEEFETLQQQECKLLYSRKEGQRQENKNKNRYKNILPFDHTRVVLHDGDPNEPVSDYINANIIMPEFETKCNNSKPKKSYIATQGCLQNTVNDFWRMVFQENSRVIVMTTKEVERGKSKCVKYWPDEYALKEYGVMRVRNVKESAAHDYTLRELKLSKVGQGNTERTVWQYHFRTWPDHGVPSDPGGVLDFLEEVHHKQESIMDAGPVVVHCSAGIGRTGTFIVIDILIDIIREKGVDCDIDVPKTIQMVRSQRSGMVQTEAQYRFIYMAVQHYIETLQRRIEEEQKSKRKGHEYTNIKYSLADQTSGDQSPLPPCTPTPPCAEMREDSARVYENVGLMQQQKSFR
Protocol: To test whether embelin and SHP2 were reversibly bound, the purified His‐ΔSHP2 fusion protein was dialyzed overnight in dialysis buffer (10 mM HEPES, 0.5 M NaCl, 1 mM TCEP, and 10% glycerol, pH 7.5), and the protein activity was detected by DiFMUP. After incubating embelin with dialyzed protein at 37 °C for 30 min, the mixed solution was dialyzed overnight or ultrafiltered, with DMSO as a control, and protein activity was detected by DiFMUP to determine the mode of protein‐compound binding.

[2] = tested on: SHP2 and ERK phosphorylation in KRAS, HRAS and NRAS‐mutant cells; test: SHP2 and ERK phosphorylation in RAS-mutant cells (western blotting); format: cell-based; conditions: KRAS G12C, G12S, G13D
Protocol: Transwell, and the subsequent experiments were performed as described in Cell migration […]
After given treatment, cells were lysed by ice bath with radio-immunoprecipitation assay (RIPA) buffer containing 1% phenylmethylsulphonyl fluoride (PMSF), and the supernatant was collected by centrifugation, and the protein concentration was subsequently determined using a BCA Protein Assay Kit. Depending on the molecular weight of the proteins, different concentrations of sodium dodecyl-sulfate polyacrylamide gel electrophoresis (SDS-PAGE) separator gels were prepared for protein electrophoresis. Equal amounts of proteins were sampled and subjected to SDS-PAGE gel electrophoresis; at the end of electrophoresis, the proteins were transferred to nitrocellulose (NC) membranes. The NC membrane was blocked with 5% skim milk and covered with a specific primary antibody overnight at 4 °C, in which the primary antibody was diluted at a ratio of 1:500–1:5000. The NC membrane was […]

[3] = tested on: NCI-H1915 cells; test: Cell viability assay (CCK-8); format: cell-based
Protocol: (§1) KRAS-mutant and wild-type cells are listed in Supplementary Table S7.
(§2) For the adherent cell viability assay, cells in the logarithmic growth phase were seeded in 96-well culture plates at a density of 5×103 well-1 and incubated overnight. Diluted compounds or DMSO were added, or specific treatments were incubated at 37 °C and 5% CO2 for 24 h or 48 h. Cell viability was determined using CCK-8 or CellLightTM Cell Viability Assay Kit, according to the manufacturer's protocol. The luminescence signals of the treated samples were normalized to those of the DMSO group. […]

[4] = tested on: NCI-H1755 cells; test: Cell viability assay (CCK-8); format: cell-based; conditions: Homo sapiens
Protocol: as §1, §2

[5] = tested on: NCI-H1693 cells; test: Cell viability assay (CCK-8); format: cell-based; conditions: Homo sapiens
Protocol: as §1, §2

[6] = tested on: SW1116 cells; test: Cell viability assay (CCK-8); format: cell-based; conditions: Homo sapiens, SW 1116
Protocol: as §1, §2

[7] = tested on: NCI-H358 cells; test: Cell viability assay (CCK-8); format: cell-based; conditions: Homo sapiens
Protocol: as §1, §2

[8] = tested on: NCI-H838 cells; test: Cell viability assay (CCK-8); format: cell-based; conditions: Homo sapiens
Protocol: as §1, §2

[9] = tested on: HCT116 cells; test: Cell viability assay (CCK-8); format: cell-based; conditions: Homo sapiens, HCT-116
Protocol: as §1, §2

[10] = tested on: SNU-C2A cells; test: Cell viability assay (CCK-8); format: cell-based
Protocol: as §1, §2

[11] = tested on: NCI-H1944 cells; test: Cell viability assay (CCK-8); format: cell-based; conditions: Homo sapiens
Protocol: as §1, §2

[12] = tested on: A549 and NCI‐H2122 cells; test: Cell proliferation in monolayer culture (CCK-8); format: cell-based, human
Protocol: as §2
Figure S7. Targeting SHP2 and XIAP produces a synthetic lethal effect. (A) Effects of NSC-87877 on cell viability of A549 and NCI-H2122 cells after 24 and 48 h were determined using the CCK-8. Bars, ± SEM. The curves were plotted using a variable slope (four-parameter) non-linear fit. (B, E, F, and I) Effects of Na3VO4 (B), birinapant (E), BV-6 (F), and LCL161 (I) on cell viability of human NCI-H2122 cells at 48 h were determined using the CCK-8. *p < 0.05, **p < 0.01 and ***p < 0.001 compared to control group (unpaired two-tailed Student’s t-test).(C, G) Effects of SHP099 (C) and GDC-0152 (G) on cell viability after 24 and 48 h were determined using the CCK-8. Bars, ± SEM. The curves were plotted using a variable slope (four-parameter) non-linear fit.(D, H) Effects of SHP099 (D) and GDC-0152 (H) on cell viability were determined after 48 h using intracellular ATP chemiluminescence. **p < 0.01 and ***p < 0.001 compared to control group (unpaired two-tailed Student’s t-test).(J) Effects of SHP099 and GDC-0152 separately and in combination, and the effect of embelin for 24 h on the cell viability were assessed using intracellular ATP […]
tailed Student’s t-test).(K) Effects of SHP099 and GDC-0152 separately and in combination with […] on the cell viability of human KRAS-WT and -mutant cells were assessed using a colony formation assay. (L, M) A549 and NCI-H2122 cells were instantaneously transfected with siPTPN11 and siXIAP separately and together for 24 h under

**Q.** Which “mode of binding to SHP2 (dialysis)” value [1] does the source give for `CCCCCCCCCCCC1=C(O)C(=O)C=C(O)C1=O` [Embelin] here?
**A.** Its value is “noncovalent”.

**Q.** And the “effect on SHP2 phosphorylation” value [2]?
**A.** Its value is “inhibited SHP2 phosphorylation”.

**Q.** And the “effect on downstream ERK phosphorylation” value [2]?
**A.** Its value is “significantly reduced”.

**Q.** And the IC50 ([3]; NCI-H1915, 48 h, read-out: IC50 at 48 h)?
**A.** Its IC50 is 11.4 ± 0.39 µM.

**Q.** What about the IC50 ([3]; NCI-H1915, HRAS, 24 h, read-out: IC50 at 24 h) of the same molecule?
**A.** Its IC50 is 60.6 ± 0.41 µM.

**Q.** And the IC50 ([4]; NCI-H1755, 48 h, read-out: IC50 at 48 h)?
**A.** The IC50 was 14.2 ± 0.27 µM.

**Q.** And the IC50 ([4]; NCI-H1755, RAS-wild type, 24 h, read-out: IC50 at 24 h)?
**A.** The IC50 was 49.4 ± 0.32 µM.

**Q.** What about the IC50 ([5]; NCI-H1693, 48 h, read-out: IC50 at 48 h) of the same molecule?
**A.** The IC50 was 16.2 ± 0.37 µM.

**Q.** What about the IC50 ([5]; NCI-H1693, RAS-wild type, 24 h, read-out: IC50 at 24 h) of the same molecule?
**A.** Its IC50 is 42.57 ± 0.34 µM.

**Q.** What about the IC50 ([6]; SW1116, 48 h, read-out: IC50 at 48 h) of the same molecule?
**A.** Its IC50 is 7 ± 0.35 µM.

**Q.** What about the IC50 ([6]; SW1116, KRAS G12A, 24 h, read-out: IC50 at 24 h) of the same molecule?
**A.** The IC50 was 19.5 ± 0.29 µM.

**Q.** What about the IC50 ([7]; NCI-H358, 48 h, read-out: IC50 at 48 h) of the same molecule?
**A.** Its IC50 is 9.2 ± 0.3 µM.

**Q.** And the IC50 ([7]; NCI-H358, KRAS G12C, 24 h, read-out: IC50 at 24 h)?
**A.** Its IC50 is 12.2 ± 0.4 µM.

**Q.** What about the IC50 ([8]; NCI-H838, 48 h, read-out: IC50 at 48 h) of the same molecule?
**A.** The IC50 was 10.5 ± 0.44 µM.

**Q.** What about the IC50 ([8]; NCI-H838, RAS-wild type, 24 h, read-out: IC50 at 24 h) of the same molecule?
**A.** Its IC50 is 39.79 ± 0.27 µM.

**Q.** What about the IC50 ([9]; HCT116, 48 h, read-out: IC50 at 48 h) of the same molecule?
**A.** The IC50 was 9.6 ± 0.4 µM.

**Q.** And the IC50 ([9]; HCT116, KRAS G13D, 24 h, read-out: IC50 at 24 h)?
**A.** The IC50 was 18.2 ± 0.9 µM.

**Q.** What about the IC50 ([10]; 48 h, read-out: IC50 at 48 h) of the same molecule?
**A.** The IC50 was 8.73 ± 0.43 µM.

**Q.** And the IC50 ([10]; KRAS G12D, 24 h, read-out: IC50 at 24 h)?
**A.** Its IC50 is 22.4 ± 0.5 µM.

**Q.** What about the IC50 ([11]; NCI-H1944, 48 h, read-out: IC50 at 48 h) of the same molecule?
**A.** The IC50 was 21.6 ± 0.9 µM.

**Q.** And the IC50 ([11]; NCI-H1944, KRAS G13D, 24 h, read-out: IC50 at 24 h)?
**A.** The IC50 was 31 ± 0.2 µM.

**Q.** `CC1(N)CCN(c2cnc(-c3cccc(Cl)c3Cl)c(N)n2)CC1` [SHP099] was tested. Which “effect on cell proliferation in monolayer cell culture mode” value [12] did it give?
**A.** Its value is “almost no effect”.
